From patent US20150025118A1, “ACTIVE COMPOUND COMPOSITIONS FOR VECTOR CONTROL OF INSECTICIDE-RESISTANT PESTS” (priority 2012, published 2015)

Assays:
[1] = test system: Anopheles gambiae (target-site-resistant and metabolic-resistant strain: RSPH); experiment: Target-site-resistant and metabolic-resistant Anopheles test: treated glazed tile, knock-down; format: in vivo
Method: (§1) The exposition time is 30 minutes.
(§2) 0.25 hours, 0.5 hours, 1 hour, 2 hour, 3 hour, 4 hour and 24 hours after contact to the treated surface, the knock-down proportion of the test animals in % is determined. Here, 100% means that all mosquitoes have been killed; 0% means that none of the mosquitoes has been killed.

[2] = test system: Anopheles funestus metabolic-resistant strain FUMOZ-R; experiment: Metabolic-resistant Anopheles test: treated glazed tile, knock-down; format: in vivo
Method: as §1, §2

[3] = test system: mosquitoes; conditions: alone, stated as known, cited from earlier work
[4] = test system: Aedes aegypti; experiment: Aedes test: contact on treated glazed tile, knock-down; format: in vivo
Method: To produce a suitable preparation of active compound combination the active compounds bendiocarb and clothianidin were dissolved in acetone (for the control group only one active compound was dissolved in acetone). The active compound combination preparation (and the active compound preparations) were pipetted onto a glazed tile and, after drying, adult mosquitoes of the species Aedes aegypti are placed onto the treated tile. The exposition time is 30 minutes.
as §2

[5] = Dinotefuran 0.8 mg/m^2 alone, 0.25 h after contact
[6] = Dinotefuran 0.8 mg/m^2 alone, 0.5 h after contact
[7] = Dinotefuran 0.8 mg/m^2 alone, 1 h after contact
[8] = Dinotefuran 0.8 mg/m^2 alone, 2 h after contact
[9] = Dinotefuran 0.8 mg/m^2 alone, 3 h after contact
[10] = Dinotefuran 0.8 mg/m^2 alone, 4 h after contact
[11] = Dinotefuran 0.8 mg/m^2 alone, 24 h after contact
[12] = Dinotefuran 4 mg/m^2 alone, 0.25 h after contact
[13] = Dinotefuran 4 mg/m^2 alone, 0.5 h after contact
[14] = Dinotefuran 4 mg/m^2 alone, 1 h after contact
[15] = Dinotefuran 4 mg/m^2 alone, 2 h after contact
[16] = Dinotefuran 4 mg/m^2 alone, 3 h after contact
[17] = Dinotefuran 4 mg/m^2 alone, 4 h after contact
[18] = Dinotefuran 4 mg/m^2 alone, 24 h after contact
[19] = Bendiocarb 0.032 mg/m^2 alone, 0.25 h after contact
[20] = Bendiocarb 0.032 mg/m^2 alone, 0.5 h after contact
[21] = Bendiocarb 0.032 mg/m^2 alone, 1 h after contact
[22] = Bendiocarb 0.032 mg/m^2 alone, 2 h after contact
[23] = Bendiocarb 0.032 mg/m^2 alone, 3 h after contact
[24] = Bendiocarb 0.032 mg/m^2 alone, 4 h after contact
[25] = Bendiocarb 0.032 mg/m^2 alone, 24 h after contact
[26] = Bendiocarb 0.16 mg/m^2 alone, 0.25 h after contact
[27] = Bendiocarb 0.16 mg/m^2 alone, 0.5 h after contact
[28] = Bendiocarb 0.16 mg/m^2 alone, 1 h after contact
[29] = Bendiocarb 0.16 mg/m^2 alone, 2 h after contact
[30] = Bendiocarb 0.16 mg/m^2 alone, 3 h after contact
[31] = Bendiocarb 0.16 mg/m^2 alone, 4 h after contact
[32] = Bendiocarb 0.16 mg/m^2 alone, 24 h after contact
[33] = Clothianidin 5 mg/m^2 alone, 0.25 h after contact
[34] = Clothianidin 5 mg/m^2 alone, 0.5 h after contact
[35] = Clothianidin 5 mg/m^2 alone, 1 h after contact
[36] = Clothianidin 5 mg/m^2 alone, 2 h after contact
[37] = Clothianidin 5 mg/m^2 alone, 3 h after contact
[38] = Clothianidin 5 mg/m^2 alone, 4 h after contact
[39] = Clothianidin 5 mg/m^2 alone, 24 h after contact
[40] = Clothianidin 20 mg/m^2 alone, 0.25 h after contact
[41] = Clothianidin 20 mg/m^2 alone, 0.5 h after contact
[42] = Clothianidin 20 mg/m^2 alone, 1 h after contact
[43] = Clothianidin 20 mg/m^2 alone, 2 h after contact
[44] = Clothianidin 20 mg/m^2 alone, 3 h after contact
[45] = Clothianidin 20 mg/m^2 alone, 4 h after contact
[46] = Clothianidin 20 mg/m^2 alone, 24 h after contact

CN/C(=N/CC1CCOC1)N[N+](=O)[O-] (stereo not drawn) [Dinotefuran, dinotefuran]
Effect % (knock-down) [1, 5]: 10% | Effect % (knock-down) [1, 6]: 5% | Effect % (knock-down) [1, 7]: 5% | Effect % (knock-down) [1, 8]: 10% | Effect % (knock-down) [1, 9]: 20% | Effect % (knock-down) [1, 10]: 30% | Effect % (knock-down) [1, 11]: 35% | Effect % (knock-down) [1, 12]: 15% | Effect % (knock-down) [1, 13]: 5% | Effect % (knock-down) [1, 14]: 15% | Effect % (knock-down) [1, 15]: 40% | Effect % (knock-down) [1, 16]: 35% | Effect % (knock-down) [1, 17]: 65% | Effect % (knock-down) [1, 18]: 65% | Effect % (knock-down) [2, 5]: 0% | Effect % (knock-down) [2, 6]: 0% | Effect % (knock-down) [2, 7]: 5% | Effect % (knock-down) [2, 8]: 0% | Effect % (knock-down) [2, 9]: 10% | Effect % (knock-down) [2, 10]: 15% | Effect % (knock-down) [2, 11]: 35% | Effect % (knock-down) [2, 12]: 15% | Effect % (knock-down) [2, 13]: 10% | Effect % (knock-down) [2, 14]: 10% | Effect % (knock-down) [2, 15]: 15% | Effect % (knock-down) [2, 16]: 30% | Effect % (knock-down) [2, 17]: 40% | Effect % (knock-down) [2, 18]: 55%

CNC(=O)Oc1cccc2c1OC(C)(C)O2 [Bendiocarb, bendiocarb]
Effect % (knock-down) ([1]; Bendiocarb 0.032 mg/m^2 alone (Table 2), 0.25 h after contact): 5% | Effect % (knock-down) ([1]; Bendiocarb 0.032 mg/m^2 alone (Table 2), 0.5 h after contact): 5% | Effect % (knock-down) ([1]; Bendiocarb 0.032 mg/m^2 alone (Table 2), 1 h after contact): 15% | Effect % (knock-down) ([1]; Bendiocarb 0.032 mg/m^2 alone (Table 2), 2 h after contact): 10% | Effect % (knock-down) ([1]; Bendiocarb 0.032 mg/m^2 alone (Table 2), 3 h after contact): 10% | Effect % (knock-down) ([1]; Bendiocarb 0.032 mg/m^2 alone (Table 2), 4 h after contact): 15% | Effect % (knock-down) ([1]; Bendiocarb 0.032 mg/m^2 alone (Table 2), 24 h after contact): 35% | Effect % (knock-down) ([1]; Bendiocarb 0.032 mg/m^2 alone (Table 3), 0.25 h after contact): 10% | Effect % (knock-down) ([1]; Bendiocarb 0.032 mg/m^2 alone (Table 3), 0.5 h after contact): 25% | Effect % (knock-down) ([1]; Bendiocarb 0.032 mg/m^2 alone (Table 3), 1 h after contact): 25% | Effect % (knock-down) ([1]; Bendiocarb 0.032 mg/m^2 alone (Table 3), 2 h after contact): 25% | Effect % (knock-down) ([1]; Bendiocarb 0.032 mg/m^2 alone (Table 3), 3 h after contact): 35% | Effect % (knock-down) ([1]; Bendiocarb 0.032 mg/m^2 alone (Table 3), 4 h after contact): 35% | Effect % (knock-down) ([1]; Bendiocarb 0.032 mg/m^2 alone (Table 3), 24 h after contact): 80% | Effect % (knock-down) ([1]; Bendiocarb 0.16 mg/m^2 alone (Table 2), 0.25 h after contact): 5% | Effect % (knock-down) ([1]; Bendiocarb 0.16 mg/m^2 alone (Table 2), 0.5 h after contact): 90% | Effect % (knock-down) ([1]; Bendiocarb 0.16 mg/m^2 alone (Table 2), 1 h after contact): 95% | Effect % (knock-down) ([1]; Bendiocarb 0.16 mg/m^2 alone (Table 2), 2 h after contact): 100% | Effect % (knock-down) ([1]; Bendiocarb 0.16 mg/m^2 alone (Table 2), 3 h after contact): 100% | Effect % (knock-down) ([1]; Bendiocarb 0.16 mg/m^2 alone (Table 2), 4 h after contact): 90% | Effect % (knock-down) ([1]; Bendiocarb 0.16 mg/m^2 alone (Table 2), 24 h after contact): 90% | Effect % (knock-down) ([1]; Bendiocarb 0.16 mg/m^2 alone (Table 3), 0.25 h after contact): 15% | Effect % (knock-down) ([1]; Bendiocarb 0.16 mg/m^2 alone (Table 3), 0.5 h after contact): 100% | Effect % (knock-down) ([1]; Bendiocarb 0.16 mg/m^2 alone (Table 3), 1 h after contact): 100% | Effect % (knock-down) ([1]; Bendiocarb 0.16 mg/m^2 alone (Table 3), 2 h after contact): 100% | Effect % (knock-down) ([1]; Bendiocarb 0.16 mg/m^2 alone (Table 3), 3 h after contact): 100% | Effect % (knock-down) ([1]; Bendiocarb 0.16 mg/m^2 alone (Table 3), 4 h after contact): 100% | Effect % (knock-down) ([1]; Bendiocarb 0.16 mg/m^2 alone (Table 3), 24 h after contact): 100% | Effect % (knock-down) ([1]; Bendiocarb 0.8 mg/m^2 alone (Table 2), 0.25 h after contact): 95% | Effect % (knock-down) ([1]; Bendiocarb 0.8 mg/m^2 alone (Table 2), 0.5 h after contact): 100% | Effect % (knock-down) ([1]; Bendiocarb 0.8 mg/m^2 alone (Table 2), 1 h after contact): 100% | Effect % (knock-down) ([1]; Bendiocarb 0.8 mg/m^2 alone (Table 2), 2 h after contact): 100% | Effect % (knock-down) ([1]; Bendiocarb 0.8 mg/m^2 alone (Table 2), 3 h after contact): 100% | Effect % (knock-down) ([1]; Bendiocarb 0.8 mg/m^2 alone (Table 2), 4 h after contact): 100% | Effect % (knock-down) ([1]; Bendiocarb 0.8 mg/m^2 alone (Table 2), 24 h after contact): 100% | efficiency on concrete ([3]; on concrete (alkaline)): not efficient | Effect % (knock-down) [4, 19]: 0% | Effect % (knock-down) [4, 20]: 0% | Effect % (knock-down) [4, 21]: 0% | Effect % (knock-down) [4, 22]: 0% | Effect % (knock-down) [4, 23]: 0% | Effect % (knock-down) [4, 24]: 5% | Effect % (knock-down) [4, 25]: 0% | Effect % (knock-down) [4, 26]: 0% | Effect % (knock-down) [4, 27]: 5% | Effect % (knock-down) [4, 28]: 5% | Effect % (knock-down) [4, 29]: 5% | Effect % (knock-down) [4, 30]: 10% | Effect % (knock-down) [4, 31]: 10% | Effect % (knock-down) [4, 32]: 5% | Effect % (knock-down) [2, 19]: 0% | Effect % (knock-down) [2, 20]: 5% | Effect % (knock-down) [2, 21]: 5% | Effect % (knock-down) [2, 22]: 5% | Effect % (knock-down) [2, 23]: 10% | Effect % (knock-down) [2, 24]: 10% | Effect % (knock-down) [2, 25]: 40% | Effect % (knock-down) [2, 26]: 0% | Effect % (knock-down) [2, 27]: 80% | Effect % (knock-down) [2, 28]: 80% | Effect % (knock-down) [2, 29]: 45% | Effect % (knock-down) [2, 30]: 50% | Effect % (knock-down) [2, 31]: 20% | Effect % (knock-down) [2, 32]: 90% | Effect % (knock-down) ([2]; Bendiocarb 0.8 mg/m^2 alone, 0.25 h after contact): 100% | Effect % (knock-down) ([2]; Bendiocarb 0.8 mg/m^2 alone, 0.5 h after contact): 100% | Effect % (knock-down) ([2]; Bendiocarb 0.8 mg/m^2 alone, 1 h after contact): 100% | Effect % (knock-down) ([2]; Bendiocarb 0.8 mg/m^2 alone, 2 h after contact): 100% | Effect % (knock-down) ([2]; Bendiocarb 0.8 mg/m^2 alone, 3 h after contact): 100% | Effect % (knock-down) ([2]; Bendiocarb 0.8 mg/m^2 alone, 4 h after contact): 95% | Effect % (knock-down) ([2]; Bendiocarb 0.8 mg/m^2 alone, 24 h after contact): 100%

CN/C(=N\[N+](=O)[O-])NCc1cnc(Cl)s1 [Clothianidin, clothianidin]
Effect % (knock-down) [1, 33]: 15% | Effect % (knock-down) [1, 34]: 25% | Effect % (knock-down) [1, 35]: 35% | Effect % (knock-down) [1, 36]: 35% | Effect % (knock-down) [1, 37]: 45% | Effect % (knock-down) [1, 38]: 50% | Effect % (knock-down) [1, 39]: 65% | Effect % (knock-down) [1, 40]: 30% | Effect % (knock-down) [1, 41]: 35% | Effect % (knock-down) [1, 42]: 40% | Effect % (knock-down) [1, 43]: 45% | Effect % (knock-down) [1, 44]: 50% | Effect % (knock-down) [1, 45]: 55% | Effect % (knock-down) [1, 46]: 65% | Effect % (knock-down) ([1]; Clothianidin 50 mg/m^2 alone, 0.25 h after contact): 10% | Effect % (knock-down) ([1]; Clothianidin 50 mg/m^2 alone, 0.5 h after contact): 35% | Effect % (knock-down) ([1]; Clothianidin 50 mg/m^2 alone, 1 h after contact): 65% | Effect % (knock-down) ([1]; Clothianidin 50 mg/m^2 alone, 2 h after contact): 65% | Effect % (knock-down) ([1]; Clothianidin 50 mg/m^2 alone, 3 h after contact): 60% | Effect % (knock-down) ([1]; Clothianidin 50 mg/m^2 alone, 4 h after contact): 65% | Effect % (knock-down) ([1]; Clothianidin 50 mg/m^2 alone, 24 h after contact): 95% | efficiency on wood ([3]; on wood): not efficient | Effect % (knock-down) [4, 33]: 5% | Effect % (knock-down) [4, 34]: 5% | Effect % (knock-down) [4, 35]: 5% | Effect % (knock-down) [4, 36]: 5% | Effect % (knock-down) [4, 37]: 5% | Effect % (knock-down) [4, 38]: 10% | Effect % (knock-down) [4, 39]: 15% | Effect % (knock-down) [4, 40]: 0% | Effect % (knock-down) [4, 41]: 15% | Effect % (knock-down) [4, 42]: 20% | Effect % (knock-down) [4, 43]: 15% | Effect % (knock-down) [4, 44]: 10% | Effect % (knock-down) [4, 45]: 10% | Effect % (knock-down) [4, 46]: 30%
